Source: US7015228B2, “4-amino-2-(2-pyridyl)pyrimidines as microbicidal active substances” (Ciba Specialty Chemicals Corporation, priority 2001, dated 2006)
In brackets after ≈: the same amount, converted by molar mass. Where two headings read alike, the source gives them in different places.

Assays:
Format in all cases: cell-based
[1] = system: Epidermophyton floccosum DSM 10709; assay: Minimum inhibitory concentration (MIC), further microorganisms; details: Table 8, * = significant inhibition of growth, but not complete inhibition; for MIC: Epidermophyton floccosum, DSM10709
Experimental: (§1) Determination of the Minimum Inhibitory Concentration (MIC Value) in Microtitre Plates
(§2) Casein-soybean flour-peptone broth for preparation of pre-cultures of test bacteria and yeast.
(§3) Mycological slant agar for the pre-culture of moulds
(§4) The test substances are pre-dissolved in dimethyl sulfoxide (DMSO) and tested in a dilution series of 1:2.
(§5) Bacteria and yeast are cultured overnight in CASO broth, the mould is cultured overnight on mycological slant agar, and washed off using 10 ml of 0.85% sodium chloride solution (+0.1% Triton X-100).
(§6) All the test organisms are adjusted to an organism count of 1–5×10^6 CFU/ml using 0.85% sodium chloride solution.
(§7) The test substances are pre-pipetted into microtitre plates in amounts of 8 μl per well.
(§8) Pre-diluted organism suspensions are diluted 1:100 in CASO broth (bacteria and yeast) or Sabouraud 2% glucose broth (mould) and are added in amounts of 192 μl per well to the test substances.
(§9) The test batches are incubated for 48 hours at 37° C. (bacteria and yeast) or for 5 days at 28° C. (mould).
(§10) After incubation, the growth is determined on the basis of the turbidity of the test batches (optical density) at 620 nm in a microplate reader.
(§11) The minimum inhibitory concentration (MIC value) is the concentration of substance at which there is found (compared to the growth of the control) an appreciable inhibition of growth (≦20% growth) of the test organisms.
(§12) One microtitre plate is used for each test organism and substance concentration. All the substances are tested in duplicate.

[2] = system: Staphylococcus aureus ATCC 9144; assay: as above; details: Table 8, * = significant inhibition of growth, but not complete inhibition; for MIC: Staphylococcus aureus, ATCC9144
Experimental: as §1, §2, §3, §4, §5, §6, §7, §8, §9, §10, §11, §12

[3] = system: Trichophyton mentagrophytes ATCC 9533; assay: as above; details: Table 8, * = significant inhibition of growth, but not complete inhibition; for MIC: Trichophyton mentagrophytes, ATCC9533
Experimental: as §1, §2, §3, §4, §5, §6, §7, §8, §9, §10, §11, §12

[4] = system: Micrococcus luteus ATCC 9341; assay: as above; details: Table 8, * = significant inhibition of growth, but not complete inhibition; for MIC: Micrococcus luteus, ATCC9341
Experimental: as §1, §2, §3, §4, §5, §6, §7, §8, §9, §10, §11, §12

[5] = system: S. epidermidis ATCC 12228; assay: as above; details: Table 8, * = significant inhibition of growth, but not complete inhibition; for MIC: Staphylococcus epidermidis, ATCC12228
Experimental: as §1, §2, §3, §4, §5, §6, §7, §8, §9, §10, §11, §12

[6] = system: Enterococcus hirae ATCC 10541; assay: as above; details: Table 8, * = significant inhibition of growth, but not complete inhibition; for MIC: Enterococcus hirae, ATCC10541
Experimental: as §1, §2, §3, §4, §5, §6, §7, §8, §9, §10, §11, §12

[7] = system: Staphylococcus hominis DMS 20328; assay: Minimum inhibitory concentration (MIC) in microtitre plates; details: Table 7, 48 hours at 37° C., MIC = ≦20% growth compared to control; for MIC: Staphylococcus hominis, DMS20328, read-out: Minimum inhibitory concentration (MIC) S. hominis
Experimental: as §1, §2, §3
(§13) Examples of Test Organisms:
as §4, §5, §6, §7, §8, §9, §10, §11, §12

[8] = system: Escherichia coli NCTC 8196; assay: as above; details: for MIC: Escherichia coli, NCTC8196
Experimental: as §1, §2, §3, §13, §4, §5, §6, §7, §8, §9, §10, §11, §12

[9] = Table 7, 48 hours at 37° C., MIC = ≦20% growth compared to control, read-out: Minimum inhibitory concentration (MIC) E. coli
[10] = Table 8, * = significant inhibition of growth, but not complete inhibition, read-out: Minimum inhibitory concentration (MIC) E. coli NCTC 8196
[11] = Table 7, 48 hours at 37° C., MIC = ≦20% growth compared to control
[12] = Table 8, * = significant inhibition of growth, but not complete inhibition

Compound `CCCCCCCCCCNc1cc(C(F)(F)F)nc(-c2ccccn2)n1` [compound 35] has an MIC [1] greater than 60 µg/mL, an MIC [2] of 7.5 µg/mL (≈ 19.7 µM) and an MIC [3] greater than 60 µg/mL. For the same compound, the MIC [4] was less than 0.5 µg/mL, the MIC [5] was 7.5 µg/mL (≈ 19.7 µM) and the MIC [6] was 7.5 µg/mL (≈ 19.7 µM). The MIC [7] was 3.75 µg/mL (≈ 9.86 µM), the MIC [8, 9] was greater than 120 µg/mL and the MIC [8, 10] was greater than 60 µg/mL.

Work on `CCCCCCCCCCCCCCCCNc1cc(C(F)(F)F)nc(-c2ccccn2)n1` [compound 37] yielded an MIC [1] greater than 60 µg/mL, an MIC [2] of 15 µg/mL (≈ 32.3 µM) and an MIC [3] greater than 60 µg/mL. It also gave an MIC [4] of 1 µg/mL (≈ 2.15 µM), an MIC [5] of 7.5 µg/mL (≈ 16.1 µM) and an MIC [6] of 30 µg/mL (≈ 64.6 µM). For the same compound, the MIC [7] was greater than 120 µg/mL, the MIC [8, 9] was greater than 120 µg/mL and the MIC [8, 10] was greater than 30 µg/mL.

With `CC(C)c1cc(NCCCCCCCCCCCCN)nc(-c2ccccn2)n1` [compound 43] the “Minimum inhibitory concentration (MIC) Epidermophyton floccosum DSM 10709” value [1] was greater than 60 µg/mL, the “Minimum inhibitory concentration (MIC) Staphylococcus aureus ATCC 9144” value [2] was 30 µg/mL (≈ 75.5 µM) and the “Minimum inhibitory concentration (MIC) Trichophyton mentagrophytes ATCC 9533” value [3] was greater than 60 µg/mL. For the same compound, the “Minimum inhibitory concentration (MIC) Micrococcus luteus ATCC 9341” value [4] was 3.75 µg/mL (≈ 9.43 µM), the “Minimum inhibitory concentration (MIC) S. epidermidis ATCC 12228” value [5] was “*15 μg/mL” and the “Minimum inhibitory concentration (MIC) Enterococcus hirae ATCC 10541” value [6] was 30 µg/mL (≈ 75.5 µM). The “Minimum inhibitory concentration (MIC) S. hominis” value [7] was 7.5 µg/mL (≈ 18.9 µM), the “Minimum inhibitory concentration (MIC) E. coli” value [8, 11] was 60 µg/mL (≈ 151 µM) and the “Minimum inhibitory concentration (MIC) E. coli NCTC 8196” value [8, 12] was greater than 60 µg/mL.

In the case of `CCCCCCCNc1cc(C(C)C)nc(-c2ccccn2)n1` [compound 44], the MIC [1] is reported as 60 µg/mL (≈ 192 µM), the MIC [2] is reported as 15 µg/mL (≈ 48 µM) and the MIC [3] is reported as greater than 60 µg/mL. The MIC [4] was 1 µg/mL (≈ 3.2 µM), the MIC [5] was 15 µg/mL (≈ 48 µM) and the MIC [6] was 15 µg/mL (≈ 48 µM). For the same compound, the MIC [7] was 3.75 µg/mL (≈ 12 µM), the MIC [8, 9] was greater than 120 µg/mL and the MIC [8, 10] was greater than 30 µg/mL.

For `CCCCCCCCNc1cc(C(C)C)nc(-c2ccccn2)n1` [compound 45], the “Minimum inhibitory concentration (MIC) Epidermophyton floccosum DSM 10709” value [1] was greater than 60 µg/mL, the “Minimum inhibitory concentration (MIC) Staphylococcus aureus ATCC 9144” value [2] was 7.5 µg/mL (≈ 23 µM) and the “Minimum inhibitory concentration (MIC) Trichophyton mentagrophytes ATCC 9533” value [3] was greater than 60 µg/mL. For the same compound, the “Minimum inhibitory concentration (MIC) Micrococcus luteus ATCC 9341” value [4] was 3.75 µg/mL (≈ 11.5 µM), the “Minimum inhibitory concentration (MIC) S. epidermidis ATCC 12228” value [5] was 7.5 µg/mL (≈ 23 µM) and the “Minimum inhibitory concentration (MIC) Enterococcus hirae ATCC 10541” value [6] was 3.75 µg/mL (≈ 11.5 µM). For the same compound, the “Minimum inhibitory concentration (MIC) S. hominis” value [7] was 3.75 µg/mL (≈ 11.5 µM), the “Minimum inhibitory concentration (MIC) E. coli” value [8, 11] was greater than 120 µg/mL and the “Minimum inhibitory concentration (MIC) E. coli NCTC 8196” value [8, 12] was greater than 30 µg/mL.

`CCCCCCCCCNc1cc(C(C)C)nc(-c2ccccn2)n1` [compound 46] was tested, and the “Minimum inhibitory concentration (MIC) Epidermophyton floccosum DSM 10709” value [1] was 60 µg/mL (≈ 176 µM), the “Minimum inhibitory concentration (MIC) Staphylococcus aureus ATCC 9144” value [2] was 30 µg/mL (≈ 88.1 µM) and the “Minimum inhibitory concentration (MIC) Trichophyton mentagrophytes ATCC 9533” value [3] was greater than 60 µg/mL. The “Minimum inhibitory concentration (MIC) Micrococcus luteus ATCC 9341” value [4] was 3.75 µg/mL (≈ 11 µM), the “Minimum inhibitory concentration (MIC) S. epidermidis ATCC 12228” value [5] was 30 µg/mL (≈ 88.1 µM) and the “Minimum inhibitory concentration (MIC) Enterococcus hirae ATCC 10541” value [6] was 30 µg/mL (≈ 88.1 µM). For the same compound, the “Minimum inhibitory concentration (MIC) S. hominis” value [7] was 3.75 µg/mL (≈ 11 µM), the “Minimum inhibitory concentration (MIC) E. coli” value [8, 11] was greater than 120 µg/mL and the “Minimum inhibitory concentration (MIC) E. coli NCTC 8196” value [8, 12] was greater than 60 µg/mL.

Work on `CCCCCCCCCCNc1cc(C(C)C)nc(-c2ccccn2)n1` [compound 47] yielded an MIC [1] of 60 µg/mL (≈ 169 µM), an MIC [2] of 7.5 µg/mL (≈ 21.2 µM) and an MIC [3] of 60 µg/mL (≈ 169 µM). For the same compound, the MIC [4] was less than 0.5 µg/mL, the MIC [5] was 3.75 µg/mL (≈ 10.6 µM) and the MIC [6] was 3.75 µg/mL (≈ 10.6 µM). The MIC [7] was 5 µg/mL (≈ 14.1 µM), the MIC [8, 9] was greater than 80 µg/mL and the MIC [8, 10] was greater than 60 µg/mL.
